Source: ChEMBL document CHEMBL4627407, “Identification of a Potent Oridonin Analogue for Treatment of Triple-Negative Breast Cancer” (J Med Chem, 2020)
Activity calls are given as the source filed them. The rule behind the calls is not given here.

Assays:
HCC1806 [1] = assay: Induction of apoptosis in human HCC1806 cells assessed as viable cells at 100 uM after 48 hrs by Annexin V-FITC/propidium iodide double staining based flow cytometry (reference value: 95.7%); type: functional; settings: HCC1806, 48 h, read-out: Activity
HCC1806 [2] = assay: Induction of cell cycle arrest in human HCC1806 cells assessed as accumulation at G2/M phase at 50 nM after 48 hrs by propidium iodide staining based FACScan flow cytometry (reference value: 10.38%); type: functional
HCC1806 [3] = assay: Induction of apoptosis in human HCC1806 cells assessed as decrease in Bcl2 expression at >= 50 nM after 48 hrs by Western blot analysis; type: functional, cell-based
HCC1806 [4] = assay: Induction of cell cycle arrest in human HCC1806 cells assessed as accumulation at G1 phase at 50 nM after 48 hrs by propidium iodide staining based FACScan flow cytometry (reference value: 70.74%); type: functional
HCC1806 [5] = assay: Antitumor activity against human HCC1806 cells in ICR mouse assessed as tumor shrinkage at 12.5 to 25 mg/kg, iv administered once per day for 23 consecutive days by TUNEL based immunohistochemical analysis; type: functional, organism-based

Structure (SMILES): C=C1C(=O)[C@@]23C(=O)[C@@H]4OC[C@]5(C=CCC(C)(C)[C@@H]45)[C@@H]2CC[C@@H]1[C@H]3OC(=O)/C=C/c1ccncc1
- viability at 100 µM (HCC1806 [1]): 69%
- Activity (HCC1806 [2]): 15.94%
- Activity (HCC1806 [3]): Active
- Activity (HCC1806 [4]): 65.83%
- Activity (HCC1806 [5]): Active
